The values below come from paper PMC6691785, “Computer-aided design and synthesis of 3-carbonyl-5-phenyl-1H-pyrazole as highly selective and potent BRAFV600E and CRAF inhibitor” (Journal of Enzyme Inhibition and Medicinal Chemistry, 2019).

Assay [1] addresses T1, BRAFV600E (Homo sapiens, UniProt P15056, V600E). Particulars: selectivity over BRAFWT; cited from earlier work.
The target in assay [2] is T2, CRAF (Homo sapiens, UniProt P04049). To be noted: selectivity over BRAFWT; cited from earlier work.
Assay [3] addresses T1, BRAFV600E. In words: Enzymatic activity (IC50) on BRAFV600E. The assay is classed as biochemical. Particulars: for IC50: enzymatic activity; for times more potent for BRAFV600E than the previous series: versus N-(3-(3-alkyl-1H-pyrazol-5-yl)phenyl)-aryl amide derivatives. The method, then:
(§1) The IC50 values for BRAFV600E and CRAF were measured for each of the 12 compounds synthesised (Table 1). The compounds were all designed as 1, 3, 5-substituted benzyl group hydrophobic tails to maintain the selectivity of the previous series.

The target of another assay is BRAFWT (Homo sapiens, UniProt P15056). In words: Enzymatic activity (IC50) on BRAFWT. Type of assay: biochemical. On the procedure: (§2) Next, we used kinase panel screening in duplicate for compound 23b over 35 different kinases at a single-dose concentration of 10 μM (Table 2). The compound was indeed a selective BRAFV600E and CRAF inhibitor with an excellent selectivity profile. This compound has an inhibitory activity of more than 90% on CRAF and BRAF V600E at a concentration of 10 μM; the inhibition activity was less than 20% for most other kinases, including wild-type BRAF. We further determined the IC50 value of 23b on wild-type BRAF to be over than 20 μM, where we could confirm selectivity (Table 3). In order to investigate the effect of 23b in living cells, the human colon cancer cell line […] expressing wild-type BRAF and the malignant melanoma A375 cell line expressing BRAFV600E were treated with increasing concentrations of 23b.

In assay [4] the target is T2, CRAF. Briefly: Enzymatic activity (IC50) on CRAF. Type of assay: biochemical. Particulars: for IC50: enzymatic activity. On the procedure: as §1
The target in assay [5] is T1, BRAFV600E. Briefly: Kinase panel screening, single dose 10 μM, BRAF V600E. The assay is classed as biochemical. Particulars: in duplicate, read-out: inhibitory activity on BRAF V600E. The method, then: as §2
(§3) We designed and synthesized selective, efficacious inhibitors for BRAFV600E and CRAF by in silico modeling using the Maestro programme.[20] […] We attempted kinase panel screening for compound 23b over 35 different kinases at a single-dose concentration of 10 μM (Table 2, performed in duplicate). The compound was, indeed, a selective BRAFV600E and CRAF inhibitor with an excellent selectivity profile. This compound has an inhibitory activity of 99% on BRAF V600E and CRAF at this concentration. The inhibition activity was less than 20% in most other kinases, including BRAFWT.

The target in assay [6] is T2, CRAF. Briefly: Kinase panel screening, single dose 10 μM, CRAF. The assay is classed as biochemical. To be noted: in duplicate, read-out: inhibitory activity on CRAF. The method, then: as §2, §3
For a further assay, the target named is wild-type BRAF (Homo sapiens, UniProt P15056). In words: Kinase panel screening, single dose 10 μM, wild-type BRAF. To be noted: in duplicate. Type of assay: biochemical. The method, then:
as §2, §3

For the next assay, the system named is 35 different kinases. In words: Kinase panel screening, single dose 10 μM, other kinases of the panel. Particulars: in duplicate, most other kinases of the 35-kinase panel. The assay is classed as biochemical. On the procedure:
as §2, §3

Assay [7] concerns malignant melanoma A375 cell line expressing BRAFV600E. In words: MTT assay, A375 cells. Type of assay: cell-based. Particulars: Homo sapiens, A-375. On the procedure:
as §2
A general note: Formazan colour is commonly taken as a measure of viable cells.

Assay [8] concerns human colon cancer cell line SW620 expressing wild-type BRAF. Briefly: MTT assay, SW620 cells. The assay is classed as cell-based. On the procedure:
as §2

T2 sequence (P04049 whole entry): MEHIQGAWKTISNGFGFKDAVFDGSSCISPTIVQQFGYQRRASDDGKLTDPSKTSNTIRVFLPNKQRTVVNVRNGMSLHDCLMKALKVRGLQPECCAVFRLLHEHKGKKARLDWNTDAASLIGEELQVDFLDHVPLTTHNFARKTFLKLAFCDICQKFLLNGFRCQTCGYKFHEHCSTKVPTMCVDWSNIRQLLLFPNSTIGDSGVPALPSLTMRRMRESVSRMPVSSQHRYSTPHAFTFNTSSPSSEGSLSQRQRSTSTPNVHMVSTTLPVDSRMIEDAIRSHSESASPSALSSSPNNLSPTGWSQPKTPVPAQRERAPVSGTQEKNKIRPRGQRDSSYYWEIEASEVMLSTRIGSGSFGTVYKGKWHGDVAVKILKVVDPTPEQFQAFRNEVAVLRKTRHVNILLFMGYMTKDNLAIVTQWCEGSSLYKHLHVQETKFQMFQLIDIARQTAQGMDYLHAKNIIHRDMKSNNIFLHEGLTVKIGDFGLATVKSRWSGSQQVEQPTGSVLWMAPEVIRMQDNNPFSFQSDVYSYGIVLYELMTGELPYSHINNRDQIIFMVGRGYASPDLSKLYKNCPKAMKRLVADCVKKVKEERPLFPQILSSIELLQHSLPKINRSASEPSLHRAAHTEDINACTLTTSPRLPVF
T1 sequence (P15056 whole entry V600E): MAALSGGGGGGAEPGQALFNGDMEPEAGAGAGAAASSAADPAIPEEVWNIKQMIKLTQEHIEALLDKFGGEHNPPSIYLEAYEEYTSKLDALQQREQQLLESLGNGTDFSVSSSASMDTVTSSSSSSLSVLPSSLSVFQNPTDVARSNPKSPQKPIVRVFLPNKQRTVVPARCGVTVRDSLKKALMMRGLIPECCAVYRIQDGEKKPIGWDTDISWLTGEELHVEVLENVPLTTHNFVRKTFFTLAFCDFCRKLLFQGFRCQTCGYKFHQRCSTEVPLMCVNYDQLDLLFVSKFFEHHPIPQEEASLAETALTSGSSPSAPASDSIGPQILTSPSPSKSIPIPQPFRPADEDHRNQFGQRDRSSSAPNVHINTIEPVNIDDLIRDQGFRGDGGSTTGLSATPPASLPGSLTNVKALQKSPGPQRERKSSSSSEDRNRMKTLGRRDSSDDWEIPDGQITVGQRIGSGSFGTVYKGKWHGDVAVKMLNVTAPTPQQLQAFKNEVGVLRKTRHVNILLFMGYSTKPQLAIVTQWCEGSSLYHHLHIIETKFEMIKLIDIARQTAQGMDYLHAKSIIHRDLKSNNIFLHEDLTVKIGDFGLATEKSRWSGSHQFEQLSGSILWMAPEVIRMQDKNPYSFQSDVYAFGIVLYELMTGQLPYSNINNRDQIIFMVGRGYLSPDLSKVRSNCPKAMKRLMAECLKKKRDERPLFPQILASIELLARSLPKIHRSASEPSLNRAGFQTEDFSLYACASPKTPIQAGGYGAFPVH
BRAFWT, sequence (P15056 whole entry): as the sequence (P15056 whole entry V600E) above, with E600V counted along it
wild-type BRAF, sequence (P15056 whole entry): as the sequence (P15056 whole entry V600E) above, with E600V counted along it

As to `CC(C)c1cc(-c2cccc(NC(=O)c3cc(N4CCN(C)CC4)cc(C(F)(F)F)c3)c2)[nH]n1` [Compound 2, N-(3–(3-alkyl-1H-pyrazol-5-yl)phenyl)-aryl amide], at BRAFV600E [1], the “times more potent on BRAFV600E than on BRAFWT” value is 20 times. In addition, the “times more potent on CRAF than on BRAFWT” value at CRAF [2] is on record as 126 times.
As to `O=C(Nc1cccc(-c2cc(C(=O)NCCN3CCOCC3)[nH]n2)c1)c1cc(N2CCOCC2)cc(C(F)(F)F)c1` [Compound 20a], the values for the IC50 against BRAFV600E [3], at BRAFWT and against CRAF [4] were 2800 nM, 16400 nM and 1500 nM, respectively.
On to `Cc1nccn1-c1cc(C(=O)Nc2cccc(-c3cc(C(=O)NCCN4CCOCC4)[nH]n3)c2)cc(C(F)(F)F)c1` [Compound 20b], for which the IC50 (commonly the concentration that inhibits the measured activity by half) is 980 nM on BRAFV600E [3], 13100 nM against BRAFWT and 590 nM against CRAF [4].
The corresponding values for `Cc1cn(-c2cc(C(=O)Nc3cccc(-c4cc(C(=O)NCCN5CCOCC5)[nH]n4)c3)cc(C(F)(F)F)c2)cn1` [Compound 20c] are 910 nM, 14700 nM and 580 nM.
Regarding `CN1CCN(c2cc(C(=O)Nc3cccc(-c4cc(C(=O)NCCN5CCOCC5)[nH]n4)c3)cc(C(F)(F)F)c2)CC1` [Compound 20d], the IC50 was 2700 nM at BRAFV600E [3], more than 20000 nM against BRAFWT and 1150 nM on CRAF [4].
The corresponding values for `O=C(Nc1cccc(-c2cc(C(=O)NCCN3CCNCC3)[nH]n2)c1)c1cc(N2CCOCC2)cc(C(F)(F)F)c1` [Compound 22a] are 2090 nM, more than 20000 nM and 1600 nM.
As to `Cc1nccn1-c1cc(C(=O)Nc2cccc(-c3cc(C(=O)NCCN4CCNCC4)[nH]n3)c2)cc(C(F)(F)F)c1` [Compound 22b], the IC50 amounted to 1260 nM against BRAFV600E [3], 12900 nM against BRAFWT and 830 nM against CRAF [4].
Turning to `Cc1cn(-c2cc(C(=O)Nc3cccc(-c4cc(C(=O)NCCN5CCNCC5)[nH]n4)c3)cc(C(F)(F)F)c2)cn1` [Compound 22c], the IC50 on BRAFV600E [3] was determined as 1510 nM; on CRAF [4], 580 nM.
On to `O=C(Nc1cccc(-c2cc(C(=O)OCCN3CCOCC3)[nH]n2)c1)c1cc(N2CCOCC2)cc(C(F)(F)F)c1` [Compound 23a], for which the figures for the IC50 against BRAFV600E [3], against BRAFWT and against CRAF [4] were 680 nM, more than 20000 nM and 130 nM, respectively.
As to `Cc1nccn1-c1cc(C(=O)Nc2cccc(-c3cc(C(=O)OCCN4CCOCC4)[nH]n3)c2)cc(C(F)(F)F)c1` [Compound 23b], the IC50 at BRAFV600E [3] is 100 nM; on BRAFWT, more than 20000 nM; against CRAF [4], 20 nM. Besides, the “times more potent for BRAFV600E than the previous series” value is 7 times at BRAFV600E [3] and “seven” on BRAFV600E [3] (listed as 23 b). The “times more potent for CRAF than the previous series” value on CRAF [4] (versus N-(3-(3-alkyl-1H-pyrazol-5-yl)phenyl)-aryl amide derivatives) was determined as 5 times. The results for the inhibition at 10 µM on BRAFV600E [5], at CRAF [6] and on wild-type BRAF were more than 90%, more than 90% and less than 20%, respectively. Further, the “inhibition activity for most other kinases” value in the assay on 35 different kinases is given as “less than 20%”. For the same molecule, the GI50 (in general, the concentration at which growth is held to half of that of the control) was 70 nM in assay [7] and more than 10000 nM in assay [8] (Homo sapiens, SW-620, SW620 cells expressing BRAFWT). Also, the “inhibition of the proliferation” value in assay [8] (increasing concentrations, SW620 cells expressing BRAFWT) is listed as “not in the cells expressing BRAFWT”.
Turning to `Cc1cn(-c2cc(C(=O)Nc3cccc(-c4cc(C(=O)OCCN5CCOCC5)[nH]n4)c3)cc(C(F)(F)F)c2)cn1` [Compound 23c], the IC50 against BRAFV600E [3] is 330 nM; on BRAFWT it was more than 20000 nM; on CRAF [4], 60 nM.
As to `CN1CCN(c2cc(C(=O)Nc3cccc(-c4cc(C(=O)OCCN5CCOCC5)[nH]n4)c3)cc(C(F)(F)F)c2)CC1` [Compound 23d], the half-maximal inhibitory concentration (IC50) at BRAFV600E [3] is 680 nM; against BRAFWT it was more than 20000 nM; against CRAF [4], 160 nM.
For `O=C(Nc1cccc(-c2cc(C(=O)OCCN3CCCCC3)[nH]n2)c1)c1cc(N2CCOCC2)cc(C(F)(F)F)c1` [Compound 24], the IC50 on BRAFV600E [3] is 400 nM; on BRAFWT, more than 20000 nM; against CRAF [4], 210 nM.
